According to patent US11541050B2, “Pyrimidine derivatives for the treatment of viral infections” (JANSSEN SCIENCES IRELAND UC, priority 2011, dated 2023):

How the values were obtained:
[1] = system: human TLR7 mutant sequence comprising a deletion in the second leucine-rich repeat; assay: TLR7 cellular NFκB-luc reporter assay, mutant TLR7 with deletion in the second leucine-rich repeat; format: cell-based; design: unit not given here; conditions: lowest effective concentration, TLR7 mutant with deletion in second leucine-rich repeat
In short: (§1)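 HEK293 cells transiently co-transfected with CMV-driven mutant TLR7 or TLR8 plasmid plus NFκB-luc reporter, cultured 48 h at 37 °C, then exposed to compound for 6 h at 37 °C, 5% CO2. Luciferase luminescence measured; dose-response curves from quadruplicates.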

[2] = system: HCV replicon in Huh-7 luc/neo cells; assay: Suppression of HCV replicon replication by conditioned media from compound-treated PBMC; format: cell-based, HCV type 1 b; conditions: Hepatitis C virus, Huh-7; read-out: PBMC-HUH7_EC50
In short: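 Human PBMC (≥2 donors, RPMI + 10% human AB serum, 2×10^5 cells/well) incubated overnight with compounds; supernatant transferred onto Huh-7 luc/neo HCV 1b replicon cells. After 24 h, replication read as luciferase activity. Recombinant interferon α-2a served as standard.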

[3] = target: T1, human TLR8 (wild type sequence) (Homo sapiens, UniProt Q9NR97); assay: TLR8 cellular NFκB-luc reporter assay, wild type TLR8; format: cell-based; design: unit not given here; conditions: lowest effective concentration, wild type TLR8 (compounds 1-73)
T1 construct: expressed in transfected cells; host or cells: HEK293
T1 sequence (Q9NR97 27-1041): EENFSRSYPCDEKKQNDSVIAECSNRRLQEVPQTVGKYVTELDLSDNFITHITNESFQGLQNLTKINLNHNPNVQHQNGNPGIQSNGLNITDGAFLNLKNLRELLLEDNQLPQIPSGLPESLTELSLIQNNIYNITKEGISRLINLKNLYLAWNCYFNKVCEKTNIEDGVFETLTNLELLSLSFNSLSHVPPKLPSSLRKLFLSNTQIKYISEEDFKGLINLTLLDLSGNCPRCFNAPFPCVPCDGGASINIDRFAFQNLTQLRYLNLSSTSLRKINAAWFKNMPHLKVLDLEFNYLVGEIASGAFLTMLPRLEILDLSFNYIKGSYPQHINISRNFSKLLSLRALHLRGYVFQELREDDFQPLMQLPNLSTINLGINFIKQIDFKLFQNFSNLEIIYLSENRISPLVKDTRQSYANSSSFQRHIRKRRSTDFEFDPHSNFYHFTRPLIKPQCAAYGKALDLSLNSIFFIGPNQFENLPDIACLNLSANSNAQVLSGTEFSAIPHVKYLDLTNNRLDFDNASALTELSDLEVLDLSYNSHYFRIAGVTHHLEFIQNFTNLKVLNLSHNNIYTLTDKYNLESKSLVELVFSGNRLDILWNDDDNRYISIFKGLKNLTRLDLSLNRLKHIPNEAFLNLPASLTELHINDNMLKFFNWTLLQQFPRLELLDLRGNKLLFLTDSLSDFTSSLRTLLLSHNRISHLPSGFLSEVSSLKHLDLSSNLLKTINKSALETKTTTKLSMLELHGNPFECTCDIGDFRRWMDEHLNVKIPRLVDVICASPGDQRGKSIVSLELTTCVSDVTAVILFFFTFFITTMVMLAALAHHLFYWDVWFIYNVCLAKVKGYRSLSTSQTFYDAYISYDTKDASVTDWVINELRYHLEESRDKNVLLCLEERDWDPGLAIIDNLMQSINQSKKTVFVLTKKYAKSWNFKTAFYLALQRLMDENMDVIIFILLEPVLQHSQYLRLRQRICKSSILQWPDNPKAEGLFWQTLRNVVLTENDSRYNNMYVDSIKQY
In short: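 HEK293 cells were transiently transfected for 48 h with a CMV-driven wild-type or LRR2-deletion TLR7 or TLR8 plasmid plus an NFκB-luc reporter. They were then exposed to compound for 6 h at 37 °C and luciferase was read. LEC is the concentration giving an effect at least twofold above the assay SD, from quadruplicate dose-response curves.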

[4] = system: human TLR8 mutant sequence comprising a deletion in the second leucine-rich repeat; assay: TLR8 cellular NFκB-luc reporter assay, mutant TLR8 with deletion in the second leucine-rich repeat; format: cell-based; design: unit not given here; conditions: lowest effective concentration, TLR8 mutant with deletion in second leucine-rich repeat
In short: as §1

SMILES | TLR7-dIRR2_LEC [1] | EC50 [2] [nM] | TLR8-wt_LEC [3] | TLR8-dIRR2_LEC [4]
CCCCNc1nc(N)ncc1OCc1cc(C)on1 [Compound 52] | 0.63 | 260 | 3.61 | 1.65
CCCCNc1nc(N)ncc1OCc1cc(F)c(F)cc1OC [Compound 53] | 0.64 | 600 | 3.06 | 2.15
CCCCCCCCOc1cnc(N)nc1NCCCC [Compound 40] | 2.69 | – | >25 | >25
CCCCNc1nc(N)ncc1OCCCO [Compound 24] | 1.99 | 2750 | 2.42 | 1.50
CCCCNc1nc(N)ncc1OCc1cccc(C(=O)OC)c1 [Compound 23] | 0.26 | 10800 | 2.55 | 1.45
C=CCCOc1cnc(N)nc1NCCCC [Compound 16] | 0.49 | 790 | 2.68 | 0.59
CCCCNc1nc(N)ncc1OCc1occ(C(=O)OC)c1C(=O)OC [Compound 49] | 0.31 | 550 | 3.72 | 2.07
CCCCNc1nc(N)ncc1OCCc1ccccc1 [Compound 13] | 2.26 | 2530 | 13.18 | 5.23
CCCCNc1nc(N)ncc1OCCCC(N)=O [Compound 28] | 2.47 | 1750 | 9.18 | 6.99
CCCCNc1nc(N)ncc1OCc1cc(C)no1 [Compound 26] | 0.49 | 580 | 3.90 | 1.52
CCCCNc1nc(N)ncc1OCCCC#N [Compound 29] | 1.32 | 2970 | 2.86 | 1.19
CCCCNc1nc(N)ncc1OCc1ccccc1Cl [Compound 15] | 0.17 | 170 | 2.31 | 1.06
CCCCNc1nc(N)ncc1OCCO [Compound 21] | 1.61 | 3080 | 2.69 | 0.64
CCCCNc1nc(N)ncc1OCCC(C)C [Compound 9] | 1.55 | 9720 | 19.00 | 9.70
C=CCCCCOc1cnc(N)nc1NCCCC [Compound 20] | 0.79 | 1330 | 10.21 | 2.87
CCCCNc1nc(N)ncc1OCc1ccc(C(=O)O)cc1OC [Compound 67] | 2.31 | 2430 | >24.59 | >24.59
CCCCNc1nc(N)nc(C)c1Oc1ccccc1 [Compound 3] | 21.69 | 10800 | 4.91 | 1.66
CCCCNc1nc(N)ncc1OCc1cncn1-c1ccccc1C [Compound 50] | 0.51 | 780 | >25 | >25
CCCCNc1nc(N)ncc1OCc1cn2ccccc2n1 [Compound 34] | 0.06 | 50 | 0.83 | 0.61
CCCCNc1nc(N)ncc1OCc1cc(-c2ccc(OC)cc2)no1 [Compound 35] | 0.39 | 1500 | 1.67 | 1.66
CCCCNc1nc(N)ncc1OCCCc1ccc(OC)cc1 [Compound 2] | 0.02 | 40 | 1.34 | 0.31

SMILES | TLR7-dIRR2_LEC [1] | EC50 [2] [nM] | TLR8-wt_LEC [3] | TLR8-dIRR2_LEC [4]
CCCCNc1nc(N)ncc1OCc1cccnc1 [Compound 22] | 0.31 | 250 | 2.35 | 0.94
CCCCNc1nc(N)ncc1OCc1occc1C(=O)OCC [Compound 47] | 0.20 | 330 | 1.87 | 0.66
CCCCNc1nc(N)ncc1OCc1ccccc1C [Compound 14] | 0.91 | 1810 | 4.92 | 0.91
CCCCNc1nc(N)ncc1OCc1ccccc1-c1ccccc1 [Compound 25] | 0.64 | 1550 | >25 | >25
CCCCNc1nc(N)ncc1OC(C)c1ccccc1 (stereo not drawn) [Compound 69] | 3.75 | 6160 | 6.43 | 2.22
CCCCNc1nc(N)ncc1OCc1ccncc1 [Compound 18] | 0.83 | 630 | 1.87 | 0.85
CCCCNc1nc(N)ncc1OCc1ncc(C)c(OC)c1C [Compound 6] | 0.01 | 20 | 0.16 | 0.10
CCCCNc1nc(N)ncc1OCCCC [Compound 10] | 1.28 | 1580 | 8.14 | 2.82
CCCCNc1nc(N)ncc1Oc1ccccc1 [Compound 71] | >24.59 | 4960 | >24.59 | >24.59
CCCCNc1nc(N)ncc1OCc1cccc(C(F)(F)F)c1 [Compound 51] | 0.58 | 500 | 3.92 | 2.09
CCCCNc1nc(N)ncc1OCc1occc1C(=O)OC [Compound 45] | 0.17 | 170 | 0.58 | 0.40
CCCCNc1nc(N)ncc1OCc1ccccc1OC(F)(F)F [Compound 43] | 0.08 | 790 | 8.22 | 1.66
CCCCNc1nc(N)ncc1OCC1CC1 [Compound 39] | 3.01 | – | 14.41 | 7.10
CCCCNc1nc(N)ncc1OCc1ccccc1F [Compound 8] | 0.38 | 370 | 1.88 | 0.81
CCCCNc1nc(N)ncc1OCc1ccc(Cl)c(Cl)c1 [Compound 11] | 0.60 | 780 | 4.52 | 3.50
CCCCNc1nc(N)ncc1OCc1cncn1C(C)c1ccccc1 (stereo not drawn) [Compound 37] | 0.04 | 120 | 9.22 | 5.69
CCCCNc1nc(N)ncc1OCCOC [Compound 17] | 0.34 | 710 | 2.03 | 0.67
CCCCNc1nc(N)ncc1OCc1ccc(C(=O)OCC)o1 [Compound 46] | 0.19 | 2510 | 3.85 | 1.96
CCCCNc1nc(N)ncc1OCc1ccc(C(=O)OC)cc1 [Compound 12] | 0.26 | 2760 | 1.49 | 1.12
CCCCNc1nc(N)nc(C)c1Oc1ccccc1OC [Compound 7] | 1.11 | 3110 | 5.84 | 3.03
